According to BindingDB's records for doi:10.1016/j.bmc.2007.04.026 (University of Ferrara, 2007):
Where a SMILES comes first, the peptide text is derived from it. [ ]: non-standard residue; d: D form. ξ: configuration not given here. Phe(4-F) = N[C@@H](Cc1ccc(F)cc1)C(=O)O; Aib = CC(C)(N)C(=O)O; ξDap = NCC(N)C(=O)O

How the values were obtained:
[1] = target: Nociceptin receptor (Rattus norvegicus, UniProt P35370); assay: Antagonist activity at NOP receptor in Sprague-Dawley rat vas deferens assessed as effect on electrically stimulated contractions
Chain of Nociceptin receptor (Rattus norvegicus, UniProt P35370) (P35370 whole entry): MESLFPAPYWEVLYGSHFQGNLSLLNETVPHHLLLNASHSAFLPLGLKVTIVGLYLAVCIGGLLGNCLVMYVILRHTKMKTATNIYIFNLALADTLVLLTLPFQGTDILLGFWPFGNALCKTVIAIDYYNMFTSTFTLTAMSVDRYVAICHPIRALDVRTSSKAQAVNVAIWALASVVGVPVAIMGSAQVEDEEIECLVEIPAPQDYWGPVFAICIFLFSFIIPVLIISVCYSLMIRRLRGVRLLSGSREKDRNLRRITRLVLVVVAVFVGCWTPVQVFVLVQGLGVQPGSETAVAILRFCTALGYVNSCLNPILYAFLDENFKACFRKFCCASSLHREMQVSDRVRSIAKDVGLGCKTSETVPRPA

[2] = target: Nociceptin receptor (Mus musculus, UniProt P35377); assay: Antagonist activity at NOP receptor in Swiss mouse vas deferens […]
Chain of Nociceptin receptor (Mus musculus, UniProt P35377) (P35377 whole entry): as the sequence (P35370 whole entry) above, with Y9F, S335A counted along it

[3] = target: Nociceptin receptor (Cavia porcellus, UniProt P47748); assay: Antagonist activity at NOP receptor in Albino guinea pig ileum assessed as effect on electrically stimulated contractions
Chain of Nociceptin receptor (Cavia porcellus, UniProt P47748) (P47748 whole entry): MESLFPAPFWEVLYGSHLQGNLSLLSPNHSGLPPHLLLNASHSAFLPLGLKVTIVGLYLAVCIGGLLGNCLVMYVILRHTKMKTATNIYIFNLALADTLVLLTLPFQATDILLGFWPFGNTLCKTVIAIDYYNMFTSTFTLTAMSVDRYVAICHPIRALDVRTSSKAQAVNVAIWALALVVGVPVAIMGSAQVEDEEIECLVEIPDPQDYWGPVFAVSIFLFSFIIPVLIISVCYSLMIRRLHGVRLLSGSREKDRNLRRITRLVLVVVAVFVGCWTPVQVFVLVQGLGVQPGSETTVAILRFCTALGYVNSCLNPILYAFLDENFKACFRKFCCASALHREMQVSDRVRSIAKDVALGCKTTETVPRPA

C[C@H](NC(=O)[C@H](CO)NC(=O)[C@H](CCCCN)NC(=O)[C@H](CCCN=C(N)N)NC(=O)C(C)(C)NC(=O)CNC(=O)[C@@H](NC(=O)[C@H](Cc1ccc(F)cc1)NC(=O)CNC(=O)C(CN)NC(=O)[C@@H](N)Cc1ccccc1)[C@@H](C)O)C(=O)N[C@@H](CCCN=C(N)N)C(=O)N[C@@H](CCCCN)C(=O)N[C@@H](CCCN=C(N)N)C(=O)N[C@@H](CCCCN)C(=O)N[C@@H](CC(N)=O)C(=O)N[C@@H](CCC(N)=O)C(N)=O (stereo partly drawn) (H-F[ξDap]G[Phe(4-F)]TG[Aib]RKSARKRKNQ-NH2)
Kd [1]: 0.603 nM
Kd [2]: 0.794 nM
Kd [3]: 0.316 nM
